In ChEMBL document CHEMBL4431341, “Synthesis and anticancer activity of a hydroxytolan series” (Bioorg Med Chem Lett, 2016):
Activity calls are given as the source filed them. No cut-off for these calls is given here.

Columns and labels:
DU-145 [1] = assay: Cytotoxicity against human DU145 cells after 24 hrs by MTT assay; format: functional; conditions: DU-145, 24 h, read-out: CD50 (the source's name)
T-24 [2] = assay: Cytotoxicity against human T24 cells after 24 hrs by MTT assay; format: functional; conditions: T-24, 24 h, read-out: CD50 (the source's name)
MDAH 2774 [3] = assay: Cytotoxicity against human MDAH 2774 cells after 24 hrs by MTT assay; format: functional; conditions: MDAH 2774, 24 h, read-out: CD50 (the source's name)
[4] = Cytotoxicity against human MHRF cells after 24 hrs by MTT assay; format: cell-based; conditions: read-out: CD50
DU-145 [5] = assay: Cytotoxicity against human DU145 cells after 48 hrs by MTT assay; format: functional; conditions: DU-145, 48 h, read-out: CD50 (the source's name)
T-24 [6] = assay: Cytotoxicity against human T24 cells after 48 hrs by MTT assay; format: functional; conditions: T-24, 48 h, read-out: CD50 (the source's name)
MDAH 2774 [7] = assay: Cytotoxicity against human MDAH 2774 cells after 48 hrs by MTT assay; format: functional; conditions: MDAH 2774, 48 h, read-out: CD50 (the source's name)
[8] = Cytotoxicity against human MHRF cells after 48 hrs by MTT assay; format: cell-based; conditions: read-out: CD50
DU-145 [9] = assay: Cytotoxicity against human DU145 cells after 72 hrs by MTT assay; format: functional; conditions: DU-145, 72 h, read-out: CD50 (the source's name)
T-24 [10] = assay: Cytotoxicity against human T24 cells after 72 hrs by MTT assay; format: functional; conditions: T-24, 72 h, read-out: CD50 (the source's name)
MDAH 2774 [11] = assay: Cytotoxicity against human MDAH 2774 cells after 72 hrs by MTT assay; format: functional; conditions: MDAH 2774, 72 h, read-out: CD50 (the source's name)
[12] = Cytotoxicity against human MHRF cells after 72 hrs by MTT assay; format: cell-based; conditions: read-out: CD50
DU-145 [13] = assay: Potency index, ratio of CD50 for RES to CD50 for test compound against human DU145 cells after 24 hrs; format: functional
T-24 [14] = assay: Potency index, ratio of CD50 for RES to CD50 for test compound against human T24 cells after 24 hrs; format: functional
MDAH 2774 [15] = assay: Potency index, ratio of CD50 for RES to CD50 for test compound against human MDAH 2774 cells after 24 hrs; format: functional
[16] = Ratio of CD50 for test compound to CD50 for RES against human MHRF cells after 24 hrs; format: ADME, cell-based
DU-145 [17] = assay: Potency index, ratio of CD50 for RES to CD50 for test compound against human DU145 cells after 48 hrs; format: functional
T-24 [18] = assay: Potency index, ratio of CD50 for RES to CD50 for test compound against human T24 cells after 48 hrs; format: functional
MDAH 2774 [19] = assay: Potency index, ratio of CD50 for RES to CD50 for test compound against human MDAH 2774 cells after 48 hrs; format: functional
[20] = Ratio of CD50 for test compound to CD50 for RES against human MHRF cells after 48 hrs; format: ADME, cell-based
DU-145 [21] = assay: Potency index, ratio of CD50 for RES to CD50 for test compound against human DU145 cells after 72 hrs; format: functional
T-24 [22] = assay: Potency index, ratio of CD50 for RES to CD50 for test compound against human T24 cells after 72 hrs; format: functional
MDAH 2774 [23] = assay: Potency index, ratio of CD50 for RES to CD50 for test compound against human MDAH 2774 cells after 72 hrs; format: functional
[24] = Ratio of CD50 for test compound to CD50 for RES against human MHRF cells after 72 hrs; format: ADME, cell-based
[25] = Selectivity index, ratio of CD50 against human MHRF cells to CD50 for human DU145 cells after 24 hrs
[26] = Selectivity index, ratio of CD50 against human MHRF cells to CD50 for human T24 cells after 24 hrs
[27] = Selectivity index, ratio of CD50 against human MHRF cells to CD50 for human MDAH 2774 cells after 24 hrs
[28] = Selectivity index, ratio of CD50 against human MHRF cells to CD50 for human DU145 cells after 48 hrs
[29] = Selectivity index, ratio of CD50 against human MHRF cells to CD50 for human T24 cells after 48 hrs
[30] = Selectivity index, ratio of CD50 against human MHRF cells to CD50 for human MDAH 2774 cells after 48 hrs
[31] = Selectivity index, ratio of CD50 against human MHRF cells to CD50 for human DU145 cells after 72 hrs
[32] = Selectivity index, ratio of CD50 against human MHRF cells to CD50 for human T24 cells after 72 hrs
[33] = Selectivity index, ratio of CD50 against human MHRF cells to CD50 for human MDAH 2774 cells after 72 hrs
DU-145 [34] = assay: Pro-oxidative activity in human DU145 cells assessed as increase in H2O2 mediated DCF formation at 25 to 100 uM preincubated with DCFH-DA for 30 mins followed by compound treatment for 3 hrs by fluorescence analysis; format: functional, cell-based
DU-145 [35] = assay: Cytotoxicity against human DU145 cells assessed as inhibition of cell viability at 2 to 500 uM after 24 hrs by MTT assay; format: functional, cell-based
DU-145 [36] = assay: Cytotoxicity against human DU145 cells assessed as inhibition of cell viability at 2 to 500 uM after 24 hrs in presence of CAT by MTT assay; format: functional, cell-based
[37] = Lipophilicity, log P of the compound; format: physicochemical; conditions: octanol/water

| Compound | CC50 (DU-145 [1]) [µM] | CC50 (T-24 [2]) [µM] | CC50 (MDAH 2774 [3]) [µM] | CC50 at 24 h [4] [µM] | CC50 (DU-145 [5]) [µM] | CC50 (T-24 [6]) [µM] | CC50 (MDAH 2774 [7]) [µM] | CC50 at 48 h [8] [µM] | CC50 (DU-145 [9]) [µM] | CC50 (T-24 [10]) [µM] | CC50 (MDAH 2774 [11]) [µM] | CC50 at 72 h [12] [µM] | Ratio (DU-145 [13]) | Ratio (T-24 [14]) | Ratio (MDAH 2774 [15]) | selectivity ratio at 24 h [16] | Ratio (DU-145 [17]) | Ratio (T-24 [18]) | Ratio (MDAH 2774 [19]) | selectivity ratio at 48 h [20] | other results |
| --- | --- | --- | --- | --- | --- | --- | --- | --- | --- | --- | --- | --- | --- | --- | --- | --- | --- | --- | --- | --- | --- |
| Oc1cc(O)cc(C#Cc2cc(O)cc(O)c2)c1 | 57 | 44.7 | 31.4 | 156 | 31.6 | 27.3 | 21.5 | 113 | 17 | 20.1 | 16.8 | 66.9 | 1.6 | 4.7 | 1.7 | 1 | 1.8 | 2.3 | 0.7 | 0.5 | Ratio (DU-145 [21]): 5; Ratio (T-24 [22]): 1.1; Ratio (MDAH 2774 [23]): 0.9; Ratio [24]: 0.5; Selectivity Index [25]: 2.7; Selectivity Index [26]: 3.5; Selectivity Index [27]: 5; Selectivity Index [28]: 3.6; Selectivity Index [29]: 4.1; Selectivity Index [30]: 5.2; Selectivity Index [31]: 4; Selectivity Index [32]: 3.3; Selectivity Index [33]: 4 |
| Oc1ccc(/C=C/c2cc(O)cc(O)c2)cc1 [RESVERATROL] | 92.2 | 210 | 36.9 | 155 | 58.2 | 61.8 | 23 | 50.9 | 27.9 | 22.7 | 14.6 | 32 |  |  |  |  |  |  |  |  | Activity (DU-145 [34]): inactive; inhibition (DU-145 [35]): inactive; inhibition (DU-145 [36]): inactive; logP [37]: 1.85 |
| Oc1ccc(C#Cc2ccc(O)cc2)cc1 | 46.7 | 82.6 | 21.5 | 299 | 12.6 | 31.1 | 10.5 | 194 | 5.6 | 8.5 | 3.1 | 153 | 2 | 2.5 | 1.7 | 0.5 | 4.6 | 2 | 2.2 | 0.3 | Ratio (DU-145 [21]): 5; Ratio (T-24 [22]): 2.7; Ratio (MDAH 2774 [23]): 4.7; Ratio [24]: 0.2; Selectivity Index [25]: 6.4; Selectivity Index [26]: 3.6; Selectivity Index [27]: 13.9; Selectivity Index [28]: 15.4; Selectivity Index [29]: 6.2; Selectivity Index [30]: 18.5; Selectivity Index [31]: 27.3; Selectivity Index [32]: 18; Selectivity Index [33]: 49.3; Activity (DU-145 [34]): Active; inhibition (DU-145 [35]): Active; inhibition (DU-145 [36]): inactive; logP [37]: 2.3 |
| Oc1ccc(C#Cc2cc(O)cc(O)c2)cc1 | 55.7 | 92.2 | 54.1 | 295 | 37.4 | 41.1 | 26.4 | 198 | 20.3 | 24.3 | 20.4 | 175 | 1.7 | 2.3 | 0.7 | 0.5 | 1.6 | 1.5 | 0.9 | 0.3 | Ratio (DU-145 [21]): 1.4; Ratio (T-24 [22]): 1; Ratio (MDAH 2774 [23]): 0.7; Ratio [24]: 0.2; Selectivity Index [25]: 5.3; Selectivity Index [26]: 3.2; Selectivity Index [27]: 5.5; Selectivity Index [28]: 5.3; Selectivity Index [29]: 4.8; Selectivity Index [30]: 7.5; Selectivity Index [31]: 8.6; Selectivity Index [32]: 7.2; Selectivity Index [33]: 8.6; logP [37]: 1.85 |
